# Measurements: paper PMC7334075 (Molecular carcinogenesis, 2020)
# Target: KRAS-G12V (Homo sapiens, UniProt P01116, G12V)
# Assay: DSF
# Assay type: binding
structure (smiles),measurement,value
"C=C(C)[C@@H]1CC[C@]2(C)CC[C@]3(C)[C@H](CC[C@@H]4[C@@]5(C)CC[C@H](O)C(C)(C)[C@@H]5CC[C@]43C)[C@@H]12 [Lupeol, Lup-20(29)-en-3b-ol]",DSF (SYPRO Orange) with GDP-loaded protein; no Kd,(loaded with GDP) suggesting binding of Lupeol to both wt-KRAS and KRAS-^G12V protein
